Source: ChEMBL document CHEMBL3608280, “Tetramic Acids and Pyridone Alkaloids from the Endolichenic Fungus Tolypocladium cylindrosporum” (J Nat Prod, 2015)
pIC50: −log10 of the molar value.

Assays:
A549 [1] = assay: Cytotoxicity against human A549 cells assessed as growth inhibition after 48 hrs by MTT assay; assay type: functional, cell-based; details: A549, 48 h
MDA-MB-231 = assay: Cytotoxicity against human MDA-MB-231 cells assessed as growth inhibition after 48 hrs by MTT assay; assay type: functional, cell-based; details: MDA-MB-231, 48 h
A2780 = assay: Cytotoxicity against human A2780 cells assessed as growth inhibition after 48 hrs by MTT assay; assay type: functional, cell-based; details: A2780, 48 h
K562 = assay: Cytotoxicity against human K562 cells assessed as growth inhibition after 48 hrs by MTT assay; assay type: functional, cell-based; details: K562, 48 h
A549 [2] = assay: Cell cycle arrest in human A549 cells assessed as accumulation at S phase at 2 uM after 24 hrs by propidium iodide staining-based flow cytometric analysis (reference value: 36.98%); assay type: functional
A549 [3] = assay: Cell cycle arrest in human A549 cells assessed as accumulation at G1 phase at 1 uM after 24 hrs by propidium iodide staining-based flow cytometric analysis (reference value: 52.73%); assay type: functional
A549 [4] = assay: Cell cycle arrest in human A549 cells assessed as accumulation at S phase at 1 uM after 24 hrs by propidium iodide staining-based flow cytometric analysis (reference value: 36.98%); assay type: functional
A549 [5] = assay: Cell cycle arrest in human A549 cells assessed as accumulation at G2/M phase at 2 uM after 24 hrs by propidium iodide staining-based flow cytometric analysis (reference value: 10.29%); assay type: functional
A549 [6] = assay: Induction of apoptosis in human A549 cells assessed as early apoptotic cells at 2 uM after 48 hrs by annexin V-FITC/propidium iodide staining-based flow cytometric analysis (reference value: 0.86%); assay type: functional
A549 [7] = assay: Induction of apoptosis in human A549 cells after 48 hrs by annexin V-FITC/propidium iodide staining-based flow cytometric analysis; assay type: functional, cell-based
A549 [8] = assay: Induction of apoptosis in human A549 cells assessed as dead cells at 1 uM after 48 hrs by annexin V-FITC/propidium iodide staining-based flow cytometric analysis (reference value: 0.43%); assay type: functional
A549 [9] = assay: Cell cycle arrest in human A549 cells assessed as accumulation at G1 phase at 2 uM after 24 hrs by propidium iodide staining-based flow cytometric analysis (reference value: 52.73%); assay type: functional
A549 [10] = assay: Induction of apoptosis in human A549 cells assessed as late apoptotic cells at 2 uM after 48 hrs by annexin V-FITC/propidium iodide staining-based flow cytometric analysis (reference value: 3.94%); assay type: functional
A549 [11] = assay: Cell cycle arrest in human A549 cells assessed as accumulation at G0/G1 phase after 24 hrs by propidium iodide staining-based flow cytometric analysis; assay type: functional
A549 [12] = assay: Induction of apoptosis in human A549 cells assessed as early apoptotic cells at 1 uM after 48 hrs by annexin V-FITC/propidium iodide staining-based flow cytometric analysis (reference value: 0.86%); assay type: functional
A549 [13] = assay: Induction of apoptosis in human A549 cells assessed as late apoptotic cells at 1 uM after 48 hrs by annexin V-FITC/propidium iodide staining-based flow cytometric analysis (reference value: 3.94%); assay type: functional
A549 [14] = assay: Cell cycle arrest in human A549 cells assessed as accumulation at G2/M phase at 1 uM after 24 hrs by propidium iodide staining-based flow cytometric analysis (reference value: 10.29%); assay type: functional
A549 [15] = assay: Induction of apoptosis in human A549 cells assessed as dead cells at 2 uM after 48 hrs by annexin V-FITC/propidium iodide staining-based flow cytometric analysis (reference value: 0.43%); assay type: functional

| Structure (SMILES) | pIC50 (A549 [1]) | pIC50 (MDA-MB-231) | pIC50 (A2780) | pIC50 (K562) | other results |
| --- | --- | --- | --- | --- | --- |
| C/C=C\C[C@H](C)C[C@H](C)/C(O)=C1/C(=O)N[C@@H]([C@@H](O)c2ccc(O)cc2)C1=O | < 4.40 | < 4.40 | < 4.40 | < 4.40 |  |
| C=C[C@@H]1C[C@H](C)C[C@H](C)C1c1c(O)cc[nH]c1=O (stereo partly drawn) | < 4.40 | < 4.40 | < 4.40 | < 4.40 |  |
| COc1cccc2c1C(=O)c1c(O)c3c(c(O)c1C2=O)C[C@@](O)(C(=O)CO)C[C@@H]3O[C@H]1C[C@H](N)[C@H](O)[C@H](C)O1 [DOXORUBICIN] | 6.29 |  | 6.22 | 5.96 |  |
| C/C=C\C[C@@H](C)C[C@@H](C)/C(O)=C1/C(=O)N/C(=C\c2ccc(O)cc2)C1=O | < 4.40 | < 4.40 | < 4.40 | < 4.40 |  |
| CC1Oc2c(-c3ccc(O)cc3)c[nH]c(=O)c2[C@@H]2[C@@H](C)C[C@@H](C)C[C@@H]12 (stereo partly drawn) | < 4.40 | < 4.40 | < 4.40 | < 4.40 |  |
| C/C=C\C[C@H](C)C[C@H](C)/C(O)=C1/C(=O)N[C@H]([C@H](O)c2ccc(O)cc2)C1=O | < 4.40 | < 4.40 | < 4.40 | < 4.40 |  |
| C/C=C\C[C@H](C)C[C@H](C)/C(O)=C1/C(=O)N/C(=C\c2ccc(O)cc2)C1=O | < 4.40 | < 4.40 | < 4.40 | < 4.40 |  |
| C=C[C@@H]1C[C@H](C)C[C@H](C)C1c1c(O)ccn(O)c1=O (stereo partly drawn) | 5.91 | 5.79 | 5.87 | 5.74 | Activity (A549 [2]): 16.02%; Activity (A549 [3]): 78.16%; Activity (A549 [4]): 17.49%; Activity (A549 [5]): 1.35%; Activity (A549 [6]): 1.06%; Activity (A549 [7]): Dose-dependent effect; Activity (A549 [8]): 4.25%; Activity (A549 [9]): 82.63%; Activity (A549 [10]): 28.3%; Activity (A549 [11]): Dose-dependent effect; Activity (A549 [12]): 3%; Activity (A549 [13]): 21.94%; Activity (A549 [14]): 4.35%; Activity (A549 [15]): 5.41% |
| Cc1cc(O)c2oc(=O)c(O)c(-c3ccc(O)cc3)c2c1 | < 4.40 | < 4.40 | < 4.40 | < 4.40 |  |
| CC(C)(O)[C@@H]1C[C@@H](O)[C@]2(C)[C@H](CC[C@@]3(C)[C@H]2CC[C@H]2Cc4c([nH]c5ccccc45)[C@@]23C)O1 [TERPENDOLE E] | 4.73 | 4.41 | 4.51 | 4.41 |  |
